The source of these data is patent US10711004B2 (Genentech, Inc., priority 2018, dated 2020).

Where two headings read alike, the source gives them in different places.

This assay deals with human TRPA1 channel (Homo sapiens (Human), UniProt O75762). The assay can be described thus: hTRPA1 CHO Ca2+ FLIPR Tetra assay, block of cinnamaldehyde induced calcium influx. The class given is cell-based. The note with it: for TRPA1 IC50 compared with 3-azabicyclo[3.1.0]hexene linker and cyclobutylene linker analogues: bicyclo[3.1.0]hexene linker compounds versus same-substituent analogues (compounds 16, 191; 26, 1); for IC50: CHO cells expressing TRPA1, Hill coefficient fixed to 1.5. A digest of the protocol: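 Calcium-dye-loaded TRPA1-expressing CHO cells in HBSS/20 mM HEPES pH 7.4, 0.02% BSA were preincubated with compound for 10 or 90 min at room temperature. Calcium influx evoked by roughly an EC50 concentration of cinnamaldehyde was then read on FLIPR Tetra; IC50 came from curve fits with a fixed Hill coefficient.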
Chain of human TRPA1 channel (O75762 whole entry): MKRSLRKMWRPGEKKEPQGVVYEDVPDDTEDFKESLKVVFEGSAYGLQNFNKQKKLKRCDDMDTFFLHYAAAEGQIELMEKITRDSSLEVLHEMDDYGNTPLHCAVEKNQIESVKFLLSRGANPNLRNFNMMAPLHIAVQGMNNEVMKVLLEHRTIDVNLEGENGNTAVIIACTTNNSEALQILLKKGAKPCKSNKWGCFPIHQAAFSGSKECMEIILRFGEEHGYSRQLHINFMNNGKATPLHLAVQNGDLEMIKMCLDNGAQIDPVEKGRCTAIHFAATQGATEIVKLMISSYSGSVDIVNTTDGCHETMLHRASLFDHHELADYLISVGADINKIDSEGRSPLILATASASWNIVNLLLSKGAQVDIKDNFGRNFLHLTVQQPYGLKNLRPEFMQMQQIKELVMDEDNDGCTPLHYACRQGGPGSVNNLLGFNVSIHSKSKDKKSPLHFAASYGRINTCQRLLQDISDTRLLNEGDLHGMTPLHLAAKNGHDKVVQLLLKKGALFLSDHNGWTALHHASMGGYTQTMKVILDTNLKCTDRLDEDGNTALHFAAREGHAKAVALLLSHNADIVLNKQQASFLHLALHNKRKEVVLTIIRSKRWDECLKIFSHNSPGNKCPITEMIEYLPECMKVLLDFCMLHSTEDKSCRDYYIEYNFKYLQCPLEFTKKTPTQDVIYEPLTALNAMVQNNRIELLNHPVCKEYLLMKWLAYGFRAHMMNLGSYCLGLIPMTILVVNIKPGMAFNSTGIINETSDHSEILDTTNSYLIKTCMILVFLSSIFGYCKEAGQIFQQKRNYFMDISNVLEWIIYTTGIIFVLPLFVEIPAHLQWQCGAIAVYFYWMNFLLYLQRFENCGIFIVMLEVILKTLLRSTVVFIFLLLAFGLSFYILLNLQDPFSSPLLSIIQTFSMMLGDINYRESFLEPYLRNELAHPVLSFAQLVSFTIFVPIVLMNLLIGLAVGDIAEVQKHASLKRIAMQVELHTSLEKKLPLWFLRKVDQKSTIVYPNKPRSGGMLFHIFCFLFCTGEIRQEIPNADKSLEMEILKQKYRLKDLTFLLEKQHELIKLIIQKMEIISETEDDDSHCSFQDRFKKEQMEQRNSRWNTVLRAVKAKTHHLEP

The mark [1] stands for this setting: read-out: hTRPA1 IC50 (10 min), compounds incubated 10 minutes at room temperature before cinnamaldehyde agonist.
Where [2] appears, read: read-out: hTRPA1 IC50 (90 min), compounds incubated 90 minutes at room temperature before cinnamaldehyde agonist.

By IC50 is commonly meant the midpoint of a concentration-inhibition curve. Take `Cn1cnc2ncn(Cc3nc([C@H]4[C@@H]5C=C(c6cccc(F)c6)C[C@@H]54)no3)c(=O)c21` [Example Compound 114, 1-((3-((1S,5S,6R)-3-(3-fluorophenyl)bicyclo[3.1.0]hex-2-en-6-yl)-1,2,4-oxadiazol-5-yl)methyl)-7-methyl-1,7-dihydro-6H-purin-6-one]: the “TRPA1 IC50 compared with 3-azabicyclo[3.1.0]hexene linker and cyclobutylene linker analogues” value is reported as “improved TRPA1 IC50 values”. Also, under setting [1], the IC50 amounted to 6.4 nM. Further, the concentration for half-maximal inhibition (IC50) under setting [2] came to 1.7 nM.
As for `Cn1cnc2ncn(Cc3nc([C@@H]4[C@H]5C=C(c6cccc(F)c6)C[C@H]54)no3)c(=O)c21` [Example Compound 115, 1-((3-((1R,5R,6S)-3-(3-fluorophenyl)bicyclo[3.1.0]hex-2-en-6-yl)-1,2,4-oxadiazol-5-yl)methyl)-7-methyl-1,7-dihydro-6H-purin-6-one], the “TRPA1 IC50 compared with 3-azabicyclo[3.1.0]hexene linker and cyclobutylene linker analogues” value was “improved TRPA1 IC50 values”. Further, the IC50 under setting [1] stood at 9.73 nM. Besides, the IC50 under setting [2] stood at 2.3 nM.
For the molecule `Cc1ncn2ncn(Cc3nc([C@H]4[C@@H]5CN(c6cc(Cl)ccn6)C[C@@H]54)no3)c(=O)c12` [Example Compound 116, 3-((3-((1R,5S,6r)-3-(4-chloropyridin-2-yl)-3-azabicyclo[3.1.0]hexan-6-yl)-1,2,4-oxadiazol-5-yl)methyl)-5-methylimidazo[5,1-f][1,2,4]triazin-4(3H)-one], the IC50 is, setting by setting: under setting [1], 61.1 nM; under setting [2], 50 nM.
On to `Cc1cnn2ncn(Cc3nc([C@H]4[C@@H]5CN(c6cc(F)ccn6)C[C@@H]54)no3)c(=O)c12` [Example Compound 117, 3-((3-((1R,5S,6r)-3-(4-fluoropyridin-2-yl)-3-azabicyclo[3.1.0]hexan-6-yl)-1,2,4-oxadiazol-5-yl)methyl)-5-methylpyrazolo[5,1-f][1,2,4]triazin-4(3H)-one], for which the IC50 by setting is: under setting [1], 19.2 nM; under setting [2], 7.5 nM.
For `COc1ccc(C2=C[C@@H]3[C@H](C2)[C@H]3c2noc(Cn3cnc4ncn(C)c4c3=O)n2)cc1` [Example Compound 118, 1-((3-((1S,5S,6R)-3-(4-methoxyphenyl)bicyclo[3.1.0]hex-2-en-6-yl)-1,2,4-oxadiazol-5-yl)methyl)-7-methyl-1,7-dihydro-6H-purin-6-one] the same measures were 41.8 nM and 15 nM.
Consider `COc1ccc(C2=C[C@H]3[C@@H](C2)[C@@H]3c2noc(Cn3cnc4ncn(C)c4c3=O)n2)cc1` [Example Compound 119, 1-((3-((1R,5R,6S)-3-(4-methoxyphenyl)bicyclo[3.1.0]hex-2-en-6-yl)-1,2,4-oxadiazol-5-yl)methyl)-7-methyl-1,7-dihydro-6H-purin-6-one], for which the IC50 was determined as 26.6 nM under setting [1] and 16 nM under setting [2].
For `Cn1cnc2ncn(Cc3nc([C@H]4[C@@H]5CN(c6cc7ccccc7cn6)C[C@@H]54)no3)c(=O)c21` [Example Compound 120, 1-((3-((1R,5S,6r)-3-(isoquinolin-3-yl)-3-azabicyclo[3.1.0]hexan-6-yl)-1,2,4-oxadiazol-5-yl)methyl)-7-methyl-1,7-dihydro-6H-purin-6-one] the same measures were 90.8 nM and 81 nM.
For `O=c1c2c(Cl)ccnc2ncn1Cc1nc([C@H]2C[C@](F)(c3ccc(Cl)cc3)C2)no1` [Example Compound 121, 5-chloro-3-((3-((1s,3s)-3-(4-chlorophenyl)-3-fluorocyclobutyl)-1,2,4-oxadiazol-5-yl)methyl)pyrido[2,3-d]pyrimidin-4(3H)-one] the same measures were 13.1 nM and 22 nM.
On to `Cn1cnc2ncn(Cc3nc([C@H]4[C@@H]5C=C(c6ccc(Cl)cn6)C[C@@H]54)no3)c(=O)c21` [Example Compound 122, 1-((3-((1S,5S,6R)-3-(5-chloropyridin-2-yl)bicyclo[3.1.0]hex-2-en-6-yl)-1,2,4-oxadiazol-5-yl)methyl)-7-methyl-1,7-dihydro-6H-purin-6-one], for which the IC50 under setting [1] was determined as 142 nM and the IC50 under setting [2] came to 130 nM.
For the molecule `Cn1cnc2ncn(Cc3nc([C@@H]4[C@H]5C=C(c6ccc(Cl)cn6)C[C@H]54)no3)c(=O)c21` [Example Compound 123, 1-((3-((1R,5R,6S)-3-(5-chloropyridin-2-yl)bicyclo[3.1.0]hex-2-en-6-yl)-1,2,4-oxadiazol-5-yl)methyl)-7-methyl-1,7-dihydro-6H-purin-6-one], the IC50 is, setting by setting: under setting [1], 296 nM; under setting [2], 360 nM.
For `Cn1cnc2ncn(Cc3nc([C@@H]4[C@H]5C=C(c6ccc(F)cc6)C[C@H]54)no3)c(=O)c21` [Example Compound 124, 1-((3-((1R,5R,6S)-3-(4-fluorophenyl)bicyclo[3.1.0]hex-2-en-6-yl)-1,2,4-oxadiazol-5-yl)methyl)-7-methyl-1,7-dihydro-6H-purin-6-one] the same measures were 10.9 nM and 7.5 nM.
`Cn1cnc2ncn(Cc3nc([C@H]4[C@@H]5C=C(c6ccc(F)cc6)C[C@@H]54)no3)c(=O)c21` [Example Compound 125, 1-((3-((1S,5S,6R)-3-(4-fluorophenyl)bicyclo[3.1.0]hex-2-en-6-yl)-1,2,4-oxadiazol-5-yl)methyl)-7-methyl-1,7-dihydro-6H-purin-6-one]: the IC50 runs as follows: under setting [1], 7.48 nM; under setting [2], 3 nM.
Take `Cn1cnc2ncn(Cc3nc([C@H]4[C@@H]5C=C(c6ccncc6)C[C@@H]54)no3)c(=O)c21` [Example Compound 126, 7-methyl-1-((3-((1S,5S,6R)-3-(pyridin-4-yl)bicyclo[3.1.0]hex-2-en-6-yl)-1,2,4-oxadiazol-5-yl)methyl)-1,7-dihydro-6H-purin-6-one]: the IC50 reads like this: under setting [1], 189 nM; under setting [2], 96 nM.
As for `Cn1cnc2ncn(Cc3nc([C@@H]4[C@H]5C=C(c6ccncc6)C[C@H]54)no3)c(=O)c21` [Example Compound 127, 7-methyl-1-((3-((1R,5R,6S)-3-(pyridin-4-yl)bicyclo[3.1.0]hex-2-en-6-yl)-1,2,4-oxadiazol-5-yl)methyl)-1,7-dihydro-6H-purin-6-one], the IC50 runs as follows: under setting [1], 129 nM; under setting [2], 85 nM.
For `Cn1cnc2ncn(Cc3nc([C@@H]4[C@H]5C=C(c6ccccn6)C[C@H]54)no3)c(=O)c21` [Example Compound 128, 7-methyl-1-((3-((1R,5R,6S)-3-(pyridin-2-yl)bicyclo[3.1.0]hex-2-en-6-yl)-1,2,4-oxadiazol-5-yl)methyl)-1,7-dihydro-6H-purin-6-one] the same measures were 118 nM and 78 nM.
For `Cn1cnc2ncn(Cc3nc([C@H]4[C@@H]5C=C(c6ccccn6)C[C@@H]54)no3)c(=O)c21` [Example Compound 129, 7-methyl-1-((3-((1S,5S,6R)-3-(pyridin-2-yl)bicyclo[3.1.0]hex-2-en-6-yl)-1,2,4-oxadiazol-5-yl)methyl)-1,7-dihydro-6H-purin-6-one] the same measures were 209 nM and 210 nM.
As for `Cn1nnc2ncn(Cc3nc([C@H]4[C@@H]5CN(c6cc(Cl)ccn6)C[C@@H]54)no3)c(=O)c21` [Example Compound 130, 6-((3-((1R,5S,6r)-3-(4-chloropyridin-2-yl)-3-azabicyclo[3.1.0]hexan-6-yl)-1,2,4-oxadiazol-5-yl)methyl)-1-methyl-1,6-dihydro-7H-[1,2,3]triazolo[4,5-d]pyrimidin-7-one], the IC50 under setting [1] came out at 74.5 nM and the IC50 under setting [2] amounted to 44 nM.
For `Cn1cnc2ncn(Cc3nc([C@H]4[C@@H]5CN(c6ccncc6F)C[C@@H]54)no3)c(=O)c21` [Example Compound 131, 1-((3-((1R,5S,6r)-3-(3-fluoropyridin-4-yl)-3-azabicyclo[3.1.0]hexan-6-yl)-1,2,4-oxadiazol-5-yl)methyl)-7-methyl-1,7-dihydro-6H-purin-6-one], the IC50 under setting [1] stood at 383 nM and the half-maximal inhibitory concentration (IC50) under setting [2] came out at 110 nM.
Take `Cn1cnc2ncn(Cc3nc([C@H]4[C@@H]5CN(c6ncccc6F)C[C@@H]54)no3)c(=O)c21` [Example Compound 132, 1-((3-((1R,5S,6r)-3-(3-fluoropyridin-2-yl)-3-azabicyclo[3.1.0]hexan-6-yl)-1,2,4-oxadiazol-5-yl)methyl)-7-methyl-1,7-dihydro-6H-purin-6-one]: the IC50 reads like this: under setting [1], 143 nM; under setting [2], 110 nM.
For the molecule `Cn1cnc2ncn(Cc3nc([C@H]4[C@@H]5C=C(c6cccnc6)C[C@@H]54)no3)c(=O)c21` [Example Compound 133, 7-methyl-1-((3-((1S,5S,6R)-3-(pyridin-3-yl)bicyclo[3.1.0]hex-2-en-6-yl)-1,2,4-oxadiazol-5-yl)methyl)-1,7-dihydro-6H-purin-6-one], the IC50 under setting [1] was determined as 179 nM and the IC50 under setting [2] worked out at 160 nM.
As for `Cn1cnc2ncn(Cc3nc([C@@H]4[C@H]5C=C(c6cccnc6)C[C@H]54)no3)c(=O)c21` [Example Compound 134, 7-methyl-1-((3-((1R,5R,6S)-3-(pyridin-3-yl)bicyclo[3.1.0]hex-2-en-6-yl)-1,2,4-oxadiazol-5-yl)methyl)-1,7-dihydro-6H-purin-6-one], the IC50 amounted to 348 nM under setting [1] and 440 nM under setting [2].
`Cn1cnc2ncn(Cc3nc([C@H]4[C@@H]5C=C(c6ccc7ccncc7c6)C[C@@H]54)no3)c(=O)c21` [Example Compound 135, 1-((3-((1S,5S,6R)-3-(isoquinolin-7-yl)bicyclo[3.1.0]hex-2-en-6-yl)-1,2,4-oxadiazol-5-yl)methyl)-7-methyl-1,7-dihydro-6H-purin-6-one]: the IC50 is, setting by setting: under setting [1], 58.7 nM; under setting [2], 48 nM.
Regarding `Cn1cnc2ncn(Cc3nc([C@@H]4[C@H]5C=C(c6ccc7ccncc7c6)C[C@H]54)no3)c(=O)c21` [Example Compound 136, 1-((3-((1R,5R,6S)-3-(isoquinolin-7-yl)bicyclo[3.1.0]hex-2-en-6-yl)-1,2,4-oxadiazol-5-yl)methyl)-7-methyl-1,7-dihydro-6H-purin-6-one], the IC50 reads like this: under setting [1], 16.6 nM; under setting [2], 7.6 nM.
